Entries after “also recorded” stand apart in the source; their conditions may differ.
Key:
[1] = cited from earlier work
[2] = test system: neovascularization; experiment: Contemplated clinical cases: intravitreal or periocular CAI against neovascularization; format: in vivo; settings: contemplated cases: 50 mcg intravitreal (Example 9); 200 mcg intravitreal then periocular sustained-release (Example 10)
Source text: The following contemplated clinical cases of angiogenesis are presented as examples of methods of treatment and not as limitations. Other illustrations of treating systemic or localized angiogenesis are not presented, since the principles involved are similar, and will be apparent to the skilled reader based upon review of an individual's clinical manifestation and the preferred embodiments of the inventive compositions.
Person with Proliferative Diabetic Retinopathy and threshold high-risk characteristics presents with Vitreous Hemorrhage. The patient also has atrial fibrillation and ischemic cardiomyopathy that requires oral Coumadin. The patient is intolerant to topical Panretinal Photocoagulation. The INR measured at just less than 2. […] The patients Vitreous Hemorrhage slowly resolves and the patient is able to taper their Coumadin so that Panretinal Photocoagulation can be placed with retrobulbar anesthesia. Alternately, the patient remains on Coumadin and then is treated with a patch periocular insert of CAI to diminish the neovascularization.
Person with a two-week history of central scotoma. They developed a large disciform scar in the contralateral eye after several sessions of photodynamic therapy. On exam and fluorescein angiography is predominately classic subfoveal membrane is noted. […]

[3] = systemic CAI; cited from earlier work
[4] = in vivo; cited from earlier work
[5] = cited from earlier work; remark: listed apart in the source

| Structure (SMILES) | serious side effect associated with clinical use ([1]; systemic administration, two cases described) | toxic effects observed in clinical studies ([1]; systemic oral dosage regimens) | neovascular regression [2] | plasma concentrations associated with unacceptable toxicity [3] | physiological tissue concentrations [4] | concentration detected in the vitreous cavity ([5]; single 5 mg peribulbar injection in humans) [µg/mL] | delivery to the subretinal space, higher following subconjunctival injection ([5]; subconjunctival injection) [fold] |
| --- | --- | --- | --- | --- | --- | --- | --- |
| NC(=O)c1nnn(Cc2cc(Cl)c(C(=O)c3ccc(Cl)cc3)c(Cl)c2)c1N [CAI] | loss of vision | cerebellar ataxia, peripheral neuropathy and exacerbation of depression | some neovascular regression; also recorded: neovascular regression occurs | above 100 micromolar | 1-10 μM |  |  |
| C[C@@H]1C[C@H]2[C@@H]3CCC4=CC(=O)C=C[C@]4(C)[C@@]3(F)[C@@H](O)C[C@]2(C)[C@@]1(O)C(=O)CO [Dexamethasone] |  |  |  |  |  | 0.013 | 10 |

— patent US9629826B2, “CAI-based systems and methods for the localized treatment of uveitis” (Gen Pharma Holdings, LLC., priority 2014, dated 2017)
